US20210038753A1, “BIOLOGICAL STERILIZATION INDICATOR WITH STERILANT RESISTANCE MODULATOR” (3M INNOVATIVE PROPERTIES COMPANY, priority 2014, published 2021)

Experiments:
[1] = system: Geobacillus stearothermophilus spores; assay: Resistance of self-contained biological indicators to hydrogen peroxide sterilization, growth readout by pH colour change (GRO+); assay type: cell-based
Method: (§1) PET film (.09 mm thick) was coated with colloidal silica as described in International Publication No. WO2014/189716, which is incorporated herein by reference in its entirety. […] Separate aqueous spore coating solutions were prepared as described in Example 1 with the amino acids shown in table 4 present in the coating solutions. Two microliter aliquots (containing at least 10^6 spores) of the respective spore coating solutions were deposited onto the silica-coated PET film, forming a series of spaced-apart spots on the film. The spore coated films were dried in a 60° C. incubator for 12 minutes. Circular discs (hereinafter, “coated carriers”) of the PET film, each disc including one of the dried spots, were punched out and were used to assemble self-contained biological indicators (BI) similar to that shown in FIG. 1 of International Publication No. WO2014/189716. The coated carriers described above were placed into the “spore carrier 135” shown in FIG. 1 of International Publication No. WO2014/189716. Each self-contained BI comprised a polycarbonate outer container, a breaker, a cap, and a cap filter. Disposed inside the outer container were a coated carrier along with an ampoule media containing the nutrient medium from 3M ATTEST 1292 Rapid Readout Biological Indicators plus 5g/L methionine (as described in Example 1).
(§2) The self-contained biological indicators with different concentrations of additives (Table 4) were exposed to hydrogen peroxide sterilization in STERRAD NX sterilizer. The sterilization processes were run by manually injecting 1.0 ml of 59% hydrogen peroxide per load, unless specified otherwise. The exposure time was varied to determine the resistance profile of self-contained BIs with different additive formulations. The BIs were activated by pressing down the cap to break the media ampoule. The activated BIs were placed in a bench-top fluorimeter (3M Company, St. Paul, Minn.) to detect fluorescence.
(§3) A self-contained BI that is not completely inactivated (i.e., not all of the spores are killed by the sterilization process) will resume cellular functions upon activation of the BI. The production of glucosidase enzyme by surviving spores is an indication that at least one of the spores have not been inactivated (killed) by the sterilization process. The glucosidase enzyme cleaves the 4-methylumbelliferyl-glucoside (MUG) releasing the fluorescent methyl umbelliferone, which is detected using a bench-top fluorimeter. Growth and proliferation of spores in the self-contained biological indicator can also be detected by a pH change, which may be detected by a color change of the pH indicator in the growth medium.
(§4) Self-contained biological indicators were prepared (with various additives listed in table 4) as described above in this Example. For each additive tested, a lower range and a higher range was used as a preliminary screen to identify additives modulated the resistance of the spores to the sterilant. Five self-contained BIs representing each condition were exposed to hydrogen peroxide sterilization in STERRAD NX sterilizer. The sterilization processes used a constant injection volume (1.0 ml of 59% hydrogen peroxide) and various times (e.g., 20 seconds to 7 minutes) of exposure to the hydrogen peroxide. The self-contained BIs were activated after exposure to the sterilization process and were monitored for fluorescence using a bench-top fluorimeter) and pH based color change (visually). […]
(§5) Self-contained biological indicators (with various additives listed in table 5) were prepared as described in Example 2. The self-contained biological indicators were exposed to hydrogen peroxide in a STERRAD NX sterilizer as described in Example 2. The self-contained BIs were activated after exposure to the sterilization process and were monitored for fluorescence using a bench-top fluorimeter and pH based color change (visually).

[2] = system: Geobacillus stearothermophilus spores; assay: Resistance of self-contained biological indicators to hydrogen peroxide sterilization, glucosidase enzyme activity fluorescence readout (ENZ+); assay type: cell-based
Method: as §1, §2, §3, §4, §5

[3] = Table 4, modulator 0.01 weight percent in spore coating solution, H2O2 exposure 30 sec.
[4] = Table 4, modulator 0.01 weight percent in spore coating solution, H2O2 exposure 60 sec.
[5] = Table 4, modulator 0.01 weight percent in spore coating solution, H2O2 exposure 90 sec.
[6] = Table 4, modulator 0.01 weight percent in spore coating solution, H2O2 exposure 3 min.
[7] = Table 4, modulator 0.01 weight percent in spore coating solution, H2O2 exposure 7 min.
[8] = Table 4, modulator 0.1 weight percent in spore coating solution, H2O2 exposure 30 sec.
[9] = Table 4, modulator 0.1 weight percent in spore coating solution, H2O2 exposure 60 sec.
[10] = Table 4, modulator 0.1 weight percent in spore coating solution, H2O2 exposure 90 sec.
[11] = Table 4, modulator 0.1 weight percent in spore coating solution, H2O2 exposure 3 min.
[12] = Table 4, modulator 0.1 weight percent in spore coating solution, H2O2 exposure 7 min.
[13] = Table 5, modulator 0.05 weight percent in spore coating solution, H2O2 exposure 20 sec.
[14] = Table 5, modulator 0.05 weight percent in spore coating solution, H2O2 exposure 30 sec.
[15] = Table 5, modulator 0.05 weight percent in spore coating solution, H2O2 exposure 60 sec.
[16] = Table 5, modulator 0.05 weight percent in spore coating solution, H2O2 exposure 90 sec.
[17] = Table 5, modulator 0.05 weight percent in spore coating solution, H2O2 exposure 3 min.
[18] = Table 5, modulator 0.05 weight percent in spore coating solution, H2O2 exposure 7 min.
[19] = Table 5, modulator 0.1 weight percent in spore coating solution, H2O2 exposure 20 sec.
[20] = Table 5, modulator 0.1 weight percent in spore coating solution, H2O2 exposure 30 sec.
[21] = Table 5, modulator 0.1 weight percent in spore coating solution, H2O2 exposure 60 sec.
[22] = Table 5, modulator 0.1 weight percent in spore coating solution, H2O2 exposure 90 sec.
[23] = Table 5, modulator 0.1 weight percent in spore coating solution, H2O2 exposure 3 min.
[24] = Table 5, modulator 0.1 weight percent in spore coating solution, H2O2 exposure 7 min.
[25] = Table 5, modulator 0.2 weight percent in spore coating solution, H2O2 exposure 20 sec.
[26] = Table 5, modulator 0.2 weight percent in spore coating solution, H2O2 exposure 30 sec.
[27] = Table 5, modulator 0.2 weight percent in spore coating solution, H2O2 exposure 60 sec.
[28] = Table 5, modulator 0.2 weight percent in spore coating solution, H2O2 exposure 90 sec.
[29] = Table 5, modulator 0.2 weight percent in spore coating solution, H2O2 exposure 3 min.
[30] = Table 5, modulator 0.2 weight percent in spore coating solution, H2O2 exposure 7 min.
[31] = Table 5, modulator 0.4 weight percent in spore coating solution, H2O2 exposure 20 sec.
[32] = Table 5, modulator 0.4 weight percent in spore coating solution, H2O2 exposure 30 sec.
[33] = Table 5, modulator 0.4 weight percent in spore coating solution, H2O2 exposure 60 sec.
[34] = Table 5, modulator 0.4 weight percent in spore coating solution, H2O2 exposure 90 sec.
[35] = Table 5, modulator 0.4 weight percent in spore coating solution, H2O2 exposure 3 min.
[36] = Table 5, modulator 0.4 weight percent in spore coating solution, H2O2 exposure 7 min.
[37] = Table 5, modulator 0.8 weight percent in spore coating solution, H2O2 exposure 20 sec.
[38] = Table 5, modulator 0.8 weight percent in spore coating solution, H2O2 exposure 30 sec.
[39] = Table 5, modulator 0.8 weight percent in spore coating solution, H2O2 exposure 60 sec.
[40] = Table 5, modulator 0.8 weight percent in spore coating solution, H2O2 exposure 90 sec.
[41] = Table 5, modulator 0.8 weight percent in spore coating solution, H2O2 exposure 3 min.
[42] = Table 5, modulator 0.8 weight percent in spore coating solution, H2O2 exposure 7 min.

N[C@@H](Cc1c[nH]cn1)C(=O)O [L-histidine]
sensitivity of the biological indicator to the sterilization process relative to the control with no additives ([1]; Example 2 / Comparative Example 1 (Table 4), fluorescence and growth readouts): increased sensitivity (decreased resistance)
sensitivity of the spores to the damaging/lethal effects of the sterilization process relative to the control with no additives ([1]; Example 3 (Table 5), fluorescence and growth readouts): increased sensitivity
percentage of self-contained biological indicators positive for growth (GRO+) [1, 3]: 80%
percentage of self-contained biological indicators positive for growth (GRO+) [1, 4]: 0%
percentage of self-contained biological indicators positive for growth (GRO+) [1, 5]: 0%
percentage of self-contained biological indicators positive for growth (GRO+) [1, 6]: 0%
percentage of self-contained biological indicators positive for growth (GRO+) [1, 7]: 0%
percentage of self-contained biological indicators positive for growth (GRO+) [1, 8]: 0%
percentage of self-contained biological indicators positive for growth (GRO+) [1, 9]: 0%
percentage of self-contained biological indicators positive for growth (GRO+) [1, 10]: 0%
percentage of self-contained biological indicators positive for growth (GRO+) [1, 11]: 0%
percentage of self-contained biological indicators positive for growth (GRO+) [1, 12]: 0%
percentage of self-contained biological indicators positive for growth (GRO+) [1, 13]: 100%
percentage of self-contained biological indicators positive for growth (GRO+) [1, 14]: 100%
percentage of self-contained biological indicators positive for growth (GRO+) [1, 15]: 0%
percentage of self-contained biological indicators positive for growth (GRO+) [1, 16]: 0%
percentage of self-contained biological indicators positive for growth (GRO+) [1, 17]: 0%
percentage of self-contained biological indicators positive for growth (GRO+) [1, 18]: 0%
percentage of self-contained biological indicators positive for growth (GRO+) [1, 19]: 100%
percentage of self-contained biological indicators positive for growth (GRO+) [1, 20]: 33%
percentage of self-contained biological indicators positive for growth (GRO+) [1, 21]: 0%
percentage of self-contained biological indicators positive for growth (GRO+) [1, 22]: 0%
percentage of self-contained biological indicators positive for growth (GRO+) [1, 23]: 0%
percentage of self-contained biological indicators positive for growth (GRO+) [1, 24]: 0%
percentage of self-contained biological indicators positive for growth (GRO+) [1, 25]: 100%
percentage of self-contained biological indicators positive for growth (GRO+) [1, 26]: 0%
percentage of self-contained biological indicators positive for growth (GRO+) [1, 27]: 0%
percentage of self-contained biological indicators positive for growth (GRO+) [1, 28]: 0%
percentage of self-contained biological indicators positive for growth (GRO+) [1, 29]: 0%
percentage of self-contained biological indicators positive for growth (GRO+) [1, 30]: 0%
percentage of self-contained biological indicators positive for growth (GRO+) [1, 31]: 100%
percentage of self-contained biological indicators positive for growth (GRO+) [1, 32]: 0%
percentage of self-contained biological indicators positive for growth (GRO+) [1, 33]: 0%
percentage of self-contained biological indicators positive for growth (GRO+) [1, 34]: 0%
percentage of self-contained biological indicators positive for growth (GRO+) [1, 35]: 0%
percentage of self-contained biological indicators positive for growth (GRO+) [1, 36]: 0%
percentage of self-contained biological indicators positive for growth (GRO+) [1, 37]: 33%
percentage of self-contained biological indicators positive for growth (GRO+) [1, 38]: 0%
percentage of self-contained biological indicators positive for growth (GRO+) [1, 39]: 0%
percentage of self-contained biological indicators positive for growth (GRO+) [1, 40]: 0%
percentage of self-contained biological indicators positive for growth (GRO+) [1, 41]: 0%
percentage of self-contained biological indicators positive for growth (GRO+) [1, 42]: 0%
percentage of self-contained biological indicators positive for glucosidase enzyme activity (ENZ+) [2, 3]: 100%
percentage of self-contained biological indicators positive for glucosidase enzyme activity (ENZ+) [2, 4]: 80%
percentage of self-contained biological indicators positive for glucosidase enzyme activity (ENZ+) [2, 5]: 0%
percentage of self-contained biological indicators positive for glucosidase enzyme activity (ENZ+) [2, 6]: 0%
percentage of self-contained biological indicators positive for glucosidase enzyme activity (ENZ+) [2, 7]: 0%
percentage of self-contained biological indicators positive for glucosidase enzyme activity (ENZ+) [2, 8]: 100%
percentage of self-contained biological indicators positive for glucosidase enzyme activity (ENZ+) [2, 9]: 10%
percentage of self-contained biological indicators positive for glucosidase enzyme activity (ENZ+) [2, 10]: 0%
percentage of self-contained biological indicators positive for glucosidase enzyme activity (ENZ+) [2, 11]: 0%
percentage of self-contained biological indicators positive for glucosidase enzyme activity (ENZ+) [2, 12]: 0%
percentage of self-contained biological indicators positive for glucosidase enzyme activity (ENZ+) [2, 13]: 100%
percentage of self-contained biological indicators positive for glucosidase enzyme activity (ENZ+) [2, 14]: 100%
percentage of self-contained biological indicators positive for glucosidase enzyme activity (ENZ+) [2, 15]: 0%
percentage of self-contained biological indicators positive for glucosidase enzyme activity (ENZ+) [2, 16]: 0%
percentage of self-contained biological indicators positive for glucosidase enzyme activity (ENZ+) [2, 17]: 0%
percentage of self-contained biological indicators positive for glucosidase enzyme activity (ENZ+) [2, 18]: 0%
percentage of self-contained biological indicators positive for glucosidase enzyme activity (ENZ+) [2, 19]: 100%
percentage of self-contained biological indicators positive for glucosidase enzyme activity (ENZ+) [2, 20]: 100%
percentage of self-contained biological indicators positive for glucosidase enzyme activity (ENZ+) [2, 21]: 67%
percentage of self-contained biological indicators positive for glucosidase enzyme activity (ENZ+) [2, 22]: 67%
percentage of self-contained biological indicators positive for glucosidase enzyme activity (ENZ+) [2, 23]: 0%
percentage of self-contained biological indicators positive for glucosidase enzyme activity (ENZ+) [2, 24]: 0%
percentage of self-contained biological indicators positive for glucosidase enzyme activity (ENZ+) [2, 25]: 100%
percentage of self-contained biological indicators positive for glucosidase enzyme activity (ENZ+) [2, 26]: 100%
percentage of self-contained biological indicators positive for glucosidase enzyme activity (ENZ+) [2, 27]: 33%
percentage of self-contained biological indicators positive for glucosidase enzyme activity (ENZ+) [2, 28]: 67%
percentage of self-contained biological indicators positive for glucosidase enzyme activity (ENZ+) [2, 29]: 0%
percentage of self-contained biological indicators positive for glucosidase enzyme activity (ENZ+) [2, 30]: 0%
percentage of self-contained biological indicators positive for glucosidase enzyme activity (ENZ+) [2, 31]: 100%
percentage of self-contained biological indicators positive for glucosidase enzyme activity (ENZ+) [2, 32]: 100%
percentage of self-contained biological indicators positive for glucosidase enzyme activity (ENZ+) [2, 33]: 0%
percentage of self-contained biological indicators positive for glucosidase enzyme activity (ENZ+) [2, 34]: 33%
percentage of self-contained biological indicators positive for glucosidase enzyme activity (ENZ+) [2, 35]: 0%
percentage of self-contained biological indicators positive for glucosidase enzyme activity (ENZ+) [2, 36]: 0%
percentage of self-contained biological indicators positive for glucosidase enzyme activity (ENZ+) [2, 37]: 100%
percentage of self-contained biological indicators positive for glucosidase enzyme activity (ENZ+) [2, 38]: 100%
percentage of self-contained biological indicators positive for glucosidase enzyme activity (ENZ+) [2, 39]: 0%
percentage of self-contained biological indicators positive for glucosidase enzyme activity (ENZ+) [2, 40]: 67%
percentage of self-contained biological indicators positive for glucosidase enzyme activity (ENZ+) [2, 41]: 0%
percentage of self-contained biological indicators positive for glucosidase enzyme activity (ENZ+) [2, 42]: 0%
